The results in this text go back to ChEMBL document CHEMBL5674860, “Optimized Dual-Glo Assay to identify co-culture-induced drug vulnerabilities in 3D CRC models” (2024).

Format in all cases: functional, Homo sapiens
What all share (set-up): dose or concentration left out as unconfirmed

In assay [1] the test system is Colon cancer organoid. Kind of assay: Optimized Dual-Glo assay to identify co-culture induced drug vulnerabilities using donated chemical probes and chemogenomics kinase set in O06 CRC organoid and F06 CAF mono and co-culture. […] Cell viability is reported both mono and co-culture models.
In assay [2] the test system is Colon cancer organoid. The experiment in a line: Optimized Dual-Glo assay to identify co-culture induced drug vulnerabilities using donated chemical probes and chemogenomics kinase set in O14 CRC organoid and F14 CAF mono and co-culture. […] Cell viability is reported both mono and co-culture models.
Assay [3] has as its system Colon cancer organoid. The experiment in a line: Optimized Dual-Glo assay to identify co-culture induced drug vulnerabilities using donated chemical probes and chemogenomics kinase set in O20 CRC organoid and F20 CAF mono and co-culture. […] Cell viability is reported both mono and co-culture models.
Setting [4] is: Culture type Co-Culture, Transduced with Lucferase2-P2A-EGFP lentivirus.
Where [5] appears, read: Culture type Co-Culture, Transduced with Renilla-dsRed lentivirus.
[6] abbreviates: Culture type Mono-Culture, Transduced with Lucferase2-P2A-EGFP lentivirus.
[7] abbreviates: Culture type Mono-Culture, Transduced with Renilla-dsRed lentivirus.

`Cc1ccc(-c2cnc([C@@]3(O)CC[C@H](C(=O)O)C(C)(C)C3)s2)cc1Nc1cccc(C(F)(F)F)n1` [MRL-SYKi-NC]: the “Cell Viability” value in the assay with Colon cancer organoid [1] (setting [4]) came to 103.411%; with Colon cancer organoid [1] (setting [5]), 158.333%; with Colon cancer organoid [1] (setting [6]), 78.37%; in the assay with Colon cancer organoid [1] (setting [7]), 87.8946%; in the assay on Colon cancer organoid [2] (setting [4]), 89.1631%; with Colon cancer organoid [2] (setting [5]) it was 98.4974%. The “Cell Viability” value is given as 85.8631% with Colon cancer organoid [2] (setting [6]); 77.2403% with Colon cancer organoid [2] (setting [7]); 106.503% in the assay with Colon cancer organoid [3] (setting [4]); 131.597% in the assay on Colon cancer organoid [3] (setting [5]); 144.144% with Colon cancer organoid [3] (setting [6]); 94.9642% with Colon cancer organoid [3] (setting [7]).

With `COc1cc(C(=O)O)ncc1C#Cc1ccccc1NS(=O)(=O)c1cccc2c(N(C)C)ccnc12` [MSC-0516], the “Cell Viability” value turned out to be 46.2412% with Colon cancer organoid [1] (setting [4]); 64.6541% in the assay on Colon cancer organoid [1] (setting [5]); 39.7973% with Colon cancer organoid [1] (setting [6]); 95.1501% in the assay on Colon cancer organoid [1] (setting [7]); 94.2911% in the assay with Colon cancer organoid [2] (setting [4]); 93.5429% with Colon cancer organoid [2] (setting [5]). In addition, the “Cell Viability” value with Colon cancer organoid [2] (setting [6]) is on record as 114.942%; with Colon cancer organoid [2] (setting [7]), 88.0348%; with Colon cancer organoid [3] (setting [4]), 89.6649%; in the assay with Colon cancer organoid [3] (setting [5]) it was 109.372%; with Colon cancer organoid [3] (setting [6]), 112.972%; in the assay on Colon cancer organoid [3] (setting [7]) it was 85.9962%.

For the compound `FC(F)(F)c1ccc2c(c1)nc(-c1cccnc1)n2C1CC1` [MSD-CYP11B2-Negative-control], the “Cell Viability” value was 103.115% in the assay with Colon cancer organoid [1] (setting [4]); 83.1787% with Colon cancer organoid [1] (setting [5]); 99.8949% with Colon cancer organoid [1] (setting [6]); 100.759% in the assay on Colon cancer organoid [1] (setting [7]); 79.1334% in the assay with Colon cancer organoid [2] (setting [4]); 88.6801% in the assay with Colon cancer organoid [2] (setting [5]). The “Cell Viability” value is given as 68.2082% with Colon cancer organoid [2] (setting [6]); 99.4361% with Colon cancer organoid [2] (setting [7]); 98.8357% in the assay with Colon cancer organoid [3] (setting [4]); 114.7% in the assay with Colon cancer organoid [3] (setting [5]); 79.6989% with Colon cancer organoid [3] (setting [6]); 74.5522% in the assay with Colon cancer organoid [3] (setting [7]).

On to `CC(C)(O)c1cncc(-c2nc3ccc(F)cc3n2C2CC2)c1` [MSD-CYP11B2], for which the “Cell Viability” value with Colon cancer organoid [1] (setting [4]) was found to be 83.611%; in the assay on Colon cancer organoid [1] (setting [5]), 134.058%; with Colon cancer organoid [1] (setting [6]), 92.3684%; in the assay on Colon cancer organoid [1] (setting [7]), 91.4752%; in the assay with Colon cancer organoid [2] (setting [4]), 60.604%; in the assay on Colon cancer organoid [2] (setting [5]) it was 97.9336%. In addition, the “Cell Viability” value stood at 96.2618% in the assay on Colon cancer organoid [2] (setting [6]); 98.7246% with Colon cancer organoid [2] (setting [7]); 80.0796% with Colon cancer organoid [3] (setting [4]); 128.543% with Colon cancer organoid [3] (setting [5]); 82.8695% in the assay on Colon cancer organoid [3] (setting [6]); 83.5223% in the assay with Colon cancer organoid [3] (setting [7]).

On to `N#CC1(c2ccccn2)CCN(Cc2cc(C(=O)N3CCCC3)c(=O)n3ccccc23)CC1` [MSD-M1PAM-NC], for which the “Cell Viability” value worked out at 85.4848% in the assay on Colon cancer organoid [1] (setting [4]); 72.6928% in the assay with Colon cancer organoid [1] (setting [5]); 94.7679% with Colon cancer organoid [1] (setting [6]); 111.31% in the assay with Colon cancer organoid [1] (setting [7]); 77.5991% with Colon cancer organoid [2] (setting [4]); 103.607% with Colon cancer organoid [2] (setting [5]). Moreover, the “Cell Viability” value in the assay on Colon cancer organoid [2] (setting [6]) is listed as 89.6138%; with Colon cancer organoid [2] (setting [7]), 86.9553%; with Colon cancer organoid [3] (setting [4]) it was 102.191%; with Colon cancer organoid [3] (setting [5]), 109.338%; with Colon cancer organoid [3] (setting [6]), 89.1265%; with Colon cancer organoid [3] (setting [7]), 100.403%.

Take `N#CC1(c2ccccn2)CCN(Cc2cc(C(=O)O)c(=O)n3ccccc23)CC1` [MSD-M1PAM]: the “Cell Viability” value with Colon cancer organoid [1] (setting [4]) is recorded as 12.088%; in the assay with Colon cancer organoid [1] (setting [5]), 188.309%; with Colon cancer organoid [1] (setting [6]) it was 35.5128%; in the assay on Colon cancer organoid [1] (setting [7]), 99.638%; in the assay on Colon cancer organoid [2] (setting [4]), 126.16%; in the assay on Colon cancer organoid [2] (setting [5]) it was 122.221%. The “Cell Viability” value in the assay with Colon cancer organoid [2] (setting [6]) is listed as 72.0486%; with Colon cancer organoid [2] (setting [7]), 98.779%; with Colon cancer organoid [3] (setting [4]) it was 53.1969%; with Colon cancer organoid [3] (setting [5]) it was 117.537%; in the assay with Colon cancer organoid [3] (setting [6]), 81.9362%; with Colon cancer organoid [3] (setting [7]) it was 89.7444%.

On to `CC(=O)Nc1c(C(C)=O)c(=O)n(C)c2nc(-c3ccc(Cl)cc3Cl)c(-c3ccc(Cl)cc3)cc12` [NAPHTHYRIDINONE], for which the “Cell Viability” value in the assay with Colon cancer organoid [1] (setting [4]) was 144.905%; with Colon cancer organoid [1] (setting [5]), 170.157%; in the assay with Colon cancer organoid [1] (setting [6]), 100.862%; in the assay with Colon cancer organoid [1] (setting [7]), 101.001%; in the assay on Colon cancer organoid [2] (setting [4]), 70.6421%; in the assay with Colon cancer organoid [2] (setting [5]), 119.606%. Besides, the “Cell Viability” value in the assay with Colon cancer organoid [2] (setting [6]) was found to be 87.1663%; in the assay on Colon cancer organoid [2] (setting [7]), 99.5027%; in the assay with Colon cancer organoid [3] (setting [4]), 105.882%; with Colon cancer organoid [3] (setting [5]), 98.6055%; in the assay on Colon cancer organoid [3] (setting [6]) it was 84.0394%; in the assay on Colon cancer organoid [3] (setting [7]), 82.777%.

Regarding `CO[C@@H](C)c1c(Nc2ccc([C@@H](N(C)C(=O)C3CCS(=O)(=O)CC3)C(F)(F)F)cc2)cnc2cc(Cl)nn12` [NVS-MALT1-C], the “Cell Viability” value is on record as 50.6957% in the assay with Colon cancer organoid [1] (setting [4]); 73.6522% in the assay with Colon cancer organoid [1] (setting [5]); 67.3669% in the assay on Colon cancer organoid [1] (setting [6]); 85.1011% with Colon cancer organoid [1] (setting [7]); 62.8563% in the assay with Colon cancer organoid [2] (setting [4]); 80.6398% with Colon cancer organoid [2] (setting [5]). Also, the “Cell Viability” value in the assay on Colon cancer organoid [2] (setting [6]) was 85.3196%; in the assay with Colon cancer organoid [2] (setting [7]), 104.147%; in the assay with Colon cancer organoid [3] (setting [4]), 83.6241%; in the assay on Colon cancer organoid [3] (setting [5]) it was 108.215%; with Colon cancer organoid [3] (setting [6]), 61.6775%; with Colon cancer organoid [3] (setting [7]) it was 90.6676%.

Turning to `CO[C@@H](C)c1c(Nc2ccc([C@H](N(C)C(=O)C3CCS(=O)(=O)CC3)C(F)(F)F)cc2)cnc2cc(Cl)nn12` [NVS-MALT1], the “Cell Viability” value turned out to be 54.3511% in the assay on Colon cancer organoid [1] (setting [4]); 83.5282% with Colon cancer organoid [1] (setting [5]); 80.0936% in the assay with Colon cancer organoid [1] (setting [6]); 98.6896% in the assay with Colon cancer organoid [1] (setting [7]); 62.6088% in the assay with Colon cancer organoid [2] (setting [4]); 105.477% in the assay on Colon cancer organoid [2] (setting [5]). The “Cell Viability” value in the assay on Colon cancer organoid [2] (setting [6]) amounted to 102.315%; with Colon cancer organoid [2] (setting [7]), 101.932%; in the assay with Colon cancer organoid [3] (setting [4]) it was 87.8486%; in the assay with Colon cancer organoid [3] (setting [5]), 98.697%; in the assay on Colon cancer organoid [3] (setting [6]), 70.7423%; in the assay on Colon cancer organoid [3] (setting [7]), 82.2292%.

As to `COc1ncc(-c2ccc3nccc(-c4ccnnc4)c3c2)cc1NS(=O)(=O)c1ccc(F)cc1F` [OMIPALISIB], the “Cell Viability” value in the assay on Colon cancer organoid [1] (setting [4]) was 2.362%; in the assay with Colon cancer organoid [1] (setting [5]) it was 34.7423%; with Colon cancer organoid [1] (setting [6]), 3.227%; in the assay with Colon cancer organoid [1] (setting [7]) it was 27.5983%; with Colon cancer organoid [2] (setting [4]), 1.562%; in the assay on Colon cancer organoid [2] (setting [5]), 61.2077%. In addition, the “Cell Viability” value in the assay with Colon cancer organoid [2] (setting [6]) is 2.831%; with Colon cancer organoid [2] (setting [7]), 44.5325%; in the assay with Colon cancer organoid [3] (setting [4]), 2.277%; with Colon cancer organoid [3] (setting [5]), 94.8256%; with Colon cancer organoid [3] (setting [6]), 1.422%; in the assay with Colon cancer organoid [3] (setting [7]), 74.6652%.
